In patent US9435807B2, “Use of leucyl tRNA synthetase” (Medicinal Bioconvergence Research Center, priority 2011, dated 2016):
Each block holds one molecule with its values, some of them ahead of it.

Key:
[1] = molecular target: T1, LRS / RagD binding (Homo sapiens, UniProt Q9NQL2+Q9P2J5); assay: In vitro pull-down of RagD with GST-LRS
T1 construct: made in house; RagD: 293T cell lysate
Description: In FIG. 6c, purified GST or GST-LRS protein was incubated with HA-RagD transfected cell lysates in the presence of GDPβS or GTPγS. The co-precipitated RagD was determined by immunoblotting with anti-HA antibody.
In FIG. 10a, the effect of tRNA on in vitro LRS-RagD binding. 293T cell lysates were incubated with purified GST or GST-fused LRS in the presence of the combinations of leucine (0.1 mM), ATP (0.1 mM), and tRNA^Leu (25 μg). The precipitated RagD was determined by immunoblotting with anti-RagD antibody.
Recombinant LRS or RagD fragment proteins were expressed as GST fusion proteins and purified by glutathione sepharose. The interactions between RagD fragments and myc-LRS overexpressed cell lysates or between LRS fragments and HA-RagD overexpressed cell lysates were tested using in vitro binding assays. Binding assay was conducted in 25 mM Tris-HCl buffer (pH7.4) containing 10 mM NaCl, 1 mM MgCl2, 1 mM EDTA, 0.5 mM EGTA, and 0.5% Triton X-100.

[2] = test system: mTORC1; assay: S6K phosphorylation (mTORC1 activation) by immunoblotting in HeLa cells; assay type: cell-based; conditions: for S6K phosphorylation by the leucine analogue itself: HeLa cells starved 1 hour of leucine, 0.8 or 8 mM analogue; for leucine-induced S6K phosphorylation: HeLa cells, preincubated with 0.8 or 8 mM analogue, then 0.8 mM leucine 5 min
Description: (§1) In FIG. 9b, HeLa cells were starved for 1 hour of leucine and preincubated with either 0.8 or 8 mM leucinol or leucine amide. After 5 min, 0.8 mM leucine was added. After 5 min incubation, cells were harvested and S6K phosphorylation was determined by immunoblotting.
(§2) For leucine depletion, cells were rinsed with leucine-free DMEM twice, incubated in leucine-free DMEM for 60 minutes, and stimulated with […] leucine for 5-60 minutes. For amino acid starvation, cells were rinsed with and incubated in DPBS containing 25 mM glucose, 1 mM sodium pyruvate, lx MEM vitamins for 60 minutes, and replaced with and incubated in DMEM for 5-60 minutes.
(§3) Cells were dissolved in the lysis buffer containing 1% Triton X-100, 40 mM HEPES (pH7.4), 2 mM EDTA, 10 mM pyrophosphate, 10 mM glycerophosphate, and protease inhibitor cocktail. The lysates were centrifuged at 13,000 rpm for 30 minutes. We then fractionated 20 μg of the extracted proteins by SDS-PAGE. For immunoprecipitations, the cells were lysed (50 mM Tris-HCL (pH 7.4), 10 mM NaCl, 1 mM EDTA, 0.5 mM EGTA, 1 mM MgCl2, 0.1% CHAPS, and 0.5% Triton X-100, 1 mM phenylmethylsulfonyl fluoride) and the primary antibodies were added to the lysates and incubated with rotation for 2 hr at 4° C. A 50% slurry of protein agarose G-sepharose was then added and the incubation continued for an additional 4 hr. After washing three times with the ice-cold lysis buffer, the precipitates were dissolved in the SDS sample buffer and separated by SDS-PAGE.

[3] = test system: mTORC1; assay: S6K phosphorylation (mTORC1 activation) by immunoblotting in 293T cells; assay type: cell-based; conditions: for EC50: Homo sapiens, HEK-293T; for EC50 / leucine-induced S6K phosphorylation / amino acid-induced S6K phosphorylation: 293T cells; for S6K phosphorylation by the leucine analogue itself: 293T cells starved 1 hour of leucine, 0.8 or 8 mM analogue; for leucine-induced S6K phosphorylation: preincubated with 0.8 or 8 mM analogue, then 0.8 mM leucine 5 min; for amino acid-induced S6K phosphorylation: siRNA 48 hours
Description: as §1, with “FIGS. 9a-9d show the effect of LRS knockdown on leucine- or leucine analogues-stimulated S6K phosphorylation. In” for “In”, “9a, the effect of leucine analogues on leucine-stimulated S6K phosphorylation is shown. 293T” for “9b, HeLa”
In FIG. 11a, 293T cells were treated with leucine at the indicated concentration for 5 min. Leucine-dependent S6K phosphorylation was determined by immunoblotting. In FIG. 11b, quantitation of p-S6K band in FIG. 11a is shown. EC50 of leucine stimulation of mTORC1 was about […]. In FIG. 11c, kinetic parameters for leucylation and ATP-PPi exchange activity of WT LRS is shown.
as §2, §3

[4] = test system: 293T cells; assay: Cell size determination (FSC of G1 cells, FACS); assay type: cell-based
Description: For measurement of cell size using forward scatter units (FSC) with unfixed cells. 293T cells were plated, washed once with PBS, and resuspended in PBS containing 0.1% serum, 5 mM EDTA, 5 ng/ml propidium iodide (PI; Sigma). Samples were analyzed by FACS analysis (FACS caliber; Becton Dickinson) for cell size (FSC). The mean of FSC of G1 phase cells was determined.

[5] = test system: EGFP-LC3 puncta; assay: Autophagy: EGFP-LC3 puncta in siRNA-transfected cells; assay type: cell-based; conditions: starved for leucine and serum for 2 hours
Description: The cells were starved for leucine and serum for 2 hours. Accumulation of EGFP-LC3 in puncta, was monitored.

T1 sequence (Q9P2J5 whole entry): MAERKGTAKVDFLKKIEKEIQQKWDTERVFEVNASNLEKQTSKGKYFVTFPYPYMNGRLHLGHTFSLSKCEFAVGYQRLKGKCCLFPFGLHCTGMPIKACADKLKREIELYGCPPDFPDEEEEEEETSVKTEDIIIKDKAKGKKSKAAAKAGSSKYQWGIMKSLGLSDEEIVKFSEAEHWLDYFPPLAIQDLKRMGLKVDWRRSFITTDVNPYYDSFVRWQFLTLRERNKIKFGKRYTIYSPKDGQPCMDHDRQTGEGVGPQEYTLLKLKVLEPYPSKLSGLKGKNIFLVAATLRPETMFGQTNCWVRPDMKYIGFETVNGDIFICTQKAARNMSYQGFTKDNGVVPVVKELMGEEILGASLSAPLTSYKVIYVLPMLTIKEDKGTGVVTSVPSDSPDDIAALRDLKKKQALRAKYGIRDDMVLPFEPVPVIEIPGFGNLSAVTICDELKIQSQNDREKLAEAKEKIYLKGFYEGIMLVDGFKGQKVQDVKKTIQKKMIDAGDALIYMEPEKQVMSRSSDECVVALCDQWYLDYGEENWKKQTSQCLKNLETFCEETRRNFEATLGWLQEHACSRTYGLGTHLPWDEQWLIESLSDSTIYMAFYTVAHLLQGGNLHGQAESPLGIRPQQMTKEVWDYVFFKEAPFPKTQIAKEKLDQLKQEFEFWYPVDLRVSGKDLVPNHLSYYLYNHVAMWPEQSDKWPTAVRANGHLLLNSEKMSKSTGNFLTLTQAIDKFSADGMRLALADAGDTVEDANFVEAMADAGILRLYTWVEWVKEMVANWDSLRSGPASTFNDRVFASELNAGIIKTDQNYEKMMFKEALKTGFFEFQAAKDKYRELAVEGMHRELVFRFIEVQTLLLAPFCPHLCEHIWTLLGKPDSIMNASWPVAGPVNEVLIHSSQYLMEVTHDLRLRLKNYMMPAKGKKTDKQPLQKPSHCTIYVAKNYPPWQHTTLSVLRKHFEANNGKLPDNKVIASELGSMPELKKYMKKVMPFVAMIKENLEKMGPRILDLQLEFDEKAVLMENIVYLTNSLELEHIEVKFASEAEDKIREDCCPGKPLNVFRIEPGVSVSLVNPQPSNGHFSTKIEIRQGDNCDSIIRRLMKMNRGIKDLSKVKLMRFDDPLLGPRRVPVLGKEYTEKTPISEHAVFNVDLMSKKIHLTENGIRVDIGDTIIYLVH
T1 sequence (Q9NQL2 whole entry): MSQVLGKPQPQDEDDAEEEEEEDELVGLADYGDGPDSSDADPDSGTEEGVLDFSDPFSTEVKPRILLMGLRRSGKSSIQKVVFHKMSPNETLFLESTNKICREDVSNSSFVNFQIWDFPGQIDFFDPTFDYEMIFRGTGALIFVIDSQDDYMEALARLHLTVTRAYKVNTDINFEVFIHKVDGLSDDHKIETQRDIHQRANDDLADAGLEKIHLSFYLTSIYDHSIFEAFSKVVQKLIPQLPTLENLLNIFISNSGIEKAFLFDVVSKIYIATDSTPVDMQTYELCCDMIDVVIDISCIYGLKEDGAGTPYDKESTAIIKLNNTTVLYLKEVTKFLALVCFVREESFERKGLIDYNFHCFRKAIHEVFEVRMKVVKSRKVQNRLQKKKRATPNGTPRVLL

competition with RagD for LRS binding ([1]; GST-LRS with 293T cell lysates, ATP 0.1 mM, tRNA^Leu 25 μg): not
Molecule: Nc1ncnc2c1ncn2[C@@H]1O[C@H](COP(=O)(O)OP(=O)(O)OP(=O)(O)O)[C@@H](O)[C@H]1O [ATP]

Molecule: Nc1nc2c(ncn2[C@@H]2O[C@H](COP(=O)(O)OP(O)(O)=S)[C@@H](O)[C@H]2O)c(=O)[nH]1 [GDPβS]
binding affinity of LRS to RagD ([1]; GST-LRS with HA-RagD transfected 293T cell lysates, presence of nucleotide analogue): significantly reduced

EC50 ([2]; Homo sapiens, HeLa cells (data not shown), read-out: EC50 for leucine stimulation of mTORC1): ~80 µM
EC50 ([3]; 5 min, leucine 5 min, quantitation of p-S6K band (FIG. 11b legend), read-out: EC50 of leucine stimulation of mTORC1): ~80 µM
EC50 ([3]; read-out: EC50 for leucine stimulation of mTORC1): ~80 µM
Molecule: CC(C)C[C@H](N)C(=O)O [Leucine, L-Leucine]

Molecule: CC(C)C[C@H](N)C(N)=O [leucinamide, L-Leucinamide]
S6K phosphorylation by the leucine analogue itself [2]: significantly induced
leucine-induced S6K phosphorylation [2]: further increased
S6K phosphorylation by the leucine analogue itself [3]: significantly induced
leucine-induced S6K phosphorylation [3]: further increased

Molecule: CC(C)C[C@H](N)CO [leucinol, Leucinol]
S6K phosphorylation by the leucine analogue itself [2]: no effect
leucine-induced S6K phosphorylation [2]: inhibited leucine-induced S6K phosphorylation in dose-dependent manner
S6K phosphorylation by the leucine analogue itself [3]: no effect
leucine-induced S6K phosphorylation [3]: inhibited leucine-induced S6K phosphorylation in dose-dependent manner

Molecule: MRS siRNA: siRNA CUACCGCUGGUUUAACAUUUCGUUU, SEQ ID NO 18 (chemistry not given here)
cell size [4]: no effect
amino acid-induced S6K phosphorylation [3]: not

Molecule: VRS siRNA: siRNA AGAAGAGGAUGUCAUGACCGGUCUC, SEQ ID NO 17 (chemistry not given here)
cell size [4]: no effect
amino acid-induced S6K phosphorylation [3]: not

Molecule: mTOR siRNA: siRNA GGAAGUACCCUACUUUGCUUGAGGU, SEQ ID NO 15 (chemistry not given here)
amino acid-induced S6K phosphorylation [3]: significantly inhibited
LC3 puncta per cell compared to control siRNA [5]: statistically significant increase
